Experimental findings from ChEMBL document CHEMBL3877255, “Structure-activity relationship (SAR) study and design strategies of nitrogen-containing heterocyclic moieties for their anticancer activities” (Eur J Med Chem, 2017) are described below.

Values after ≈ are worked out from the molar mass of the structure shown.

A short description of experiment [1]: Cytotoxicity against human DU145 cells by MTT assay. The format is functional, cell-based. As to conditions: DU-145. (Formazan colour is commonly taken as a measure of viable cells.)
Experiment [2] can be described thus: Cytotoxicity against human MDA-MB-231 cells by MTT assay. Type of experiment: functional, cell-based.
Experiment [3] can be described thus: Cytotoxicity against human PC3 cells by MTT assay. The format is functional, cell-based. The conditions noted are these: PC-3.
Experiment [4] can be described thus: Cytotoxicity against human MCF7 cells by MTT assay. The format is functional, cell-based.
Experiment [5] can be described thus: Cytotoxicity against human MCF7 cells measured after 3 days by MTT assay. Type of experiment: functional. As to conditions: MCF7, 72 h.
The nature of experiment [6]: Cytotoxicity against human A549 cells measured after 3 days by MTT assay. Type of experiment: functional. The conditions noted are these: A549, 72 h.
Experiment [7] is described as follows: Cytotoxicity against human HepG2 cells after 72 hrs by sulforhodamine-B assay. Type of experiment: functional, cell-based. The conditions noted are these: HepG2, 72 h. (In general: The SRB assay estimates cell density from bound dye.)
Experiment [8] can be described thus: Cytotoxicity against human NCI-H157 cells by sulforhodamine-B assay. The format is functional, cell-based.
Experiment [9] in a line: Cytotoxicity against human A549 cells by sulforhodamine-B assay. Type of experiment: functional, cell-based.
The nature of experiment [10]: Cytotoxicity against human Calu1 cells by sulforhodamine-B assay. The format is functional, cell-based. As to conditions: Calu-1.
Experiment [11] deals with cGMP-inhibited 3',5'-cyclic phosphodiesterase 3A (Homo sapiens, UniProt Q14432). As to the kind of experiment: Inhibition of human PDE3A using fluorescein-labelled cAMP as substrate measured after 60 mins by IMAP TR-FRET assay.
The nature of experiment [12]: Cytotoxicity against human MCF7 cells measured after 24 hrs by MTT assay. Type of experiment: functional, cell-based. The conditions noted are these: MCF7, 24 h.
The nature of experiment [13]: Cytotoxicity against human HeLa cells measured after 24 hrs by MTT assay. Type of experiment: functional, cell-based.
A short description of experiment [14]: Cytotoxicity against human HeLa cells measured after 3 days by MTT assay. The format is functional. The conditions noted are these: 72 h.

Sequence of cGMP-inhibited 3',5'-cyclic phosphodiesterase 3A (Q14432 whole entry): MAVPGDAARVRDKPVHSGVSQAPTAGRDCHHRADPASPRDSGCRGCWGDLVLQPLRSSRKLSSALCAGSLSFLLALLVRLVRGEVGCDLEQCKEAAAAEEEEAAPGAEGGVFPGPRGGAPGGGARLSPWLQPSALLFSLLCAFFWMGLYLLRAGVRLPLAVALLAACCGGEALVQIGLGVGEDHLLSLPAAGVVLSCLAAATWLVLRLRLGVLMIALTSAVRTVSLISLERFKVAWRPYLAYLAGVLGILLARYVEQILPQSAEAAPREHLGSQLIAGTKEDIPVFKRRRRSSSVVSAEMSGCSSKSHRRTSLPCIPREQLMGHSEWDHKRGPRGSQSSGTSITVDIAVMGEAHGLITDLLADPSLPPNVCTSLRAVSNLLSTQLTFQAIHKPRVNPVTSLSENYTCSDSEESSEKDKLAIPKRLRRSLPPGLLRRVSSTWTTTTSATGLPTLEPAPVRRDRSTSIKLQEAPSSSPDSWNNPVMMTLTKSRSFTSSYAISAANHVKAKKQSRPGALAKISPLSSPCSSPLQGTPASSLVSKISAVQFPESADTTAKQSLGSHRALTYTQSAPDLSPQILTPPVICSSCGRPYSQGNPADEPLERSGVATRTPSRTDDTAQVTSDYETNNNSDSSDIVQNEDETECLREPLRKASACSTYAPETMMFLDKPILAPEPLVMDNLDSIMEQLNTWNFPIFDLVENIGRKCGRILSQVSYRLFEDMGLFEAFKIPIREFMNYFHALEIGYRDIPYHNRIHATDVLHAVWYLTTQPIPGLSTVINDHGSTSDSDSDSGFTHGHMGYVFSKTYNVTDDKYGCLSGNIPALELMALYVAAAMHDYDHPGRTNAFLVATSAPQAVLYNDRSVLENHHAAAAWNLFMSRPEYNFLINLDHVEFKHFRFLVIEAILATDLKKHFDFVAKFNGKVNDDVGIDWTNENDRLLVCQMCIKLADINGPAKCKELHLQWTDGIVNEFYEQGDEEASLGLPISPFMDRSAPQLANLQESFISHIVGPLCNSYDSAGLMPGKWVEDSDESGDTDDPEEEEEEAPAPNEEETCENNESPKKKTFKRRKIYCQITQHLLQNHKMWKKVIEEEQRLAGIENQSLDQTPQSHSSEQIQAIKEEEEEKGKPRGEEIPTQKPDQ

A word on the IC50: it is the concentration that inhibits the measured activity by half. Higher therefore signals weaker potency. For `Clc1cccc(Cl)c1C1=NO[C@@]2(CCCCO2)[C@H]1Br`, the IC50 in [1], in experiment [2], in [3] and in experiment [4] was 43 to 56 µM in each case.
In general, CC50 refers to the concentration that lowers cell viability or growth by half. A lower CC50 goes with greater toxicity to the cells. On to `Cc1ccc2nc3ccccc3c(Nc3cccc(Cl)c3)c2c1`, for which the CC50 came out at 212 µg/mL (≈ 667 µM) in [5] and 188 µg/mL (≈ 588 µM) in experiment [6].
In [6], `CC(C)NC(=O)c1cccc2c(Cc3cccc(Cl)c3)c3ccccc3nc12` showed a CC50 of 100 µg/mL (≈ 257 µM).
Regarding `COC(=O)c1ccccc1-n1c(N)c(C#N)c(-c2ccc(N(C)C)cc2)cc1=O`, half-maximal inhibition in experiment [7] (IC50) was put at 0.02 µM. In other words, the double-digit nanomolar range.
`Cc1onc(-c2ccc([N+](=O)[O-])cc2)c1C(=O)/C=C/c1ccccc1Br`: the IC50 came to 7.27 µM in [8] and 11.1 µM in experiment [9].
Regarding `Cc1onc(-c2ccc([N+](=O)[O-])cc2)c1C(=O)/C=C/c1ccccc1Cl`, the IC50 came out at 1.35 µM in experiment [8] and 2.07 µM in experiment [10].
Take `Clc1ccc(C2=NO[C@@]3(CCCCO3)[C@H]2Br)cc1`: the IC50 in [1], in [2], in experiment [3] and in experiment [4] was 43 to 56 µM each time.
Take `CCSc1ncc(-c2cc(-c3ccc(Br)cc3)[nH]c(=N)c2C#N)n1Cc1ccccc1`: the IC50 worked out at 0.00376 µM in experiment [11], 50.2 µM in experiment [12] and 34.3 µM in experiment [13].
In experiment [14], `CC(C)NC(=O)c1cccc2c(Cc3ccc(C(=O)O)cc3)c3ccccc3nc12` registered a 50% cytotoxic concentration (CC50) of 47.5 µg/mL (≈ 119 µM).
Take `COC(=O)c1ccccc1-n1c(N)c(C(N)=O)c(-c2ccc(N(C)C)cc2)cc1=O`: in [7], the IC50 came to 1.34 µM.
